Experimental data published in patent US11109593B2, “Isoxazolin-5-one derivative and herbicide containing same as active ingredient” (HOKKO CHEMICAL INDUSTRY CO., LTD., priority 2017, dated 2021).

Tested on: Scirpus juncoides
Experiment: Test Example 1: herbicidal effect test by treatment of rice paddy soil (immediately after seeding)
Assay type: in vivo
Settings: 120 g/10a active ingredient, 14 days after treatment, dry weight vs untreated area
Description: (§1) Herbicidal Effect Test by Treatment of Rice Paddy Soil
(§2) Wagner pots with an area of 1/10000 ares were filled with a paddy soil, and after adding water, a compound fertilizer (N:P:K=17:17:17) was added, followed by soil puddling. Then, Echinochloa crus-galli, broad leaf weeds (Lindernia pyxidaria and Monochoria vaginalis) and Scirpus juncoides, 30 seeds each, were sown in a depth of 0 to 1 cm. Water was poured immediately after seeding, and the water depth was kept at about 3 cm. The subsequent management was conducted in a glass greenhouse. Immediately after that, emulsions prepared using the compounds in Table 3 below according to Formulation Example 5 were diluted with water, and a certain amount of the water-diluted agent solutions were dropped. The converted amount of the applied active ingredient corresponded to 120 g per 10 ares.
(§3) This test was conducted in a double system per one agent solution concentration area, and the herbicidal rates (%) were determined by the following equation (Math. 1) on 14 days after the treatment with the agents. Herbicidal Rate (%)={1-(Average Dry Weight (g) of Plant of Treated Area)/(Average Dry Weight (g) of Plant of Untreated Area)}×100 [Math. 1]
(§4) The compound numbers in Table 3 are the same as those in Table 1 and Table 2 above.

| SMILES | Herbicidal rate (%) Scirpus juncoides |
| --- | --- |
| Cc1c(Cc2ccccc2N(S(=O)(=O)C(F)(F)F)S(=O)(=O)C(F)(F)F)c(=O)on1CCOc1ccccc1 [Compound 1-1058] | 90% |

Same assay, conditions: 120 g/10a active ingredient, dry weight vs untreated area, 14 days after treatment

| SMILES | Herbicidal rate (%) Scirpus juncoides |
| --- | --- |
| Cc1c(Cc2c(Cl)cccc2N(S(=O)(=O)C(F)(F)F)S(=O)(=O)C(F)(F)F)c(=O)on1C(C)C [Compound 1-47] | 80% |
| CC(C)c1c(Cc2ccccc2NS(=O)(=O)C(F)(F)F)c(=O)on1C(C)C [Compound 1-68] | 90% |
| Cc1c(Cc2ccccc2NS(=O)(=O)C(F)(F)F)c(=O)on1Cc1ccc(C(C)(C)C)cc1 [Compound 1-192] | 40% |

Tested on: Echinochloa crus-galli
Experiment: as above
Assay type: in vivo
Settings: 120 g/10a active ingredient, 14 days after treatment, dry weight vs untreated area
Description: as §1, §2, §3, §4

| SMILES | Herbicidal rate (%) Echinochloa crus-galli |
| --- | --- |
| Cc1c(Cc2ccccc2N(S(=O)(=O)C(F)(F)F)S(=O)(=O)C(F)(F)F)c(=O)on1CCOc1ccccc1 [Compound 1-1058] | 90% |

Same assay, conditions: 120 g/10a active ingredient, dry weight vs untreated area, 14 days after treatment

| SMILES | Herbicidal rate (%) Echinochloa crus-galli |
| --- | --- |
| Cc1c(Cc2c(Cl)cccc2N(S(=O)(=O)C(F)(F)F)S(=O)(=O)C(F)(F)F)c(=O)on1C(C)C [Compound 1-47] | 40% |
| CC(C)c1c(Cc2ccccc2NS(=O)(=O)C(F)(F)F)c(=O)on1C(C)C [Compound 1-68] | 80% |
| Cc1c(Cc2ccccc2NS(=O)(=O)C(F)(F)F)c(=O)on1Cc1ccc(C(C)(C)C)cc1 [Compound 1-192] | 90% |

Tested on: broad leaf weeds (Lindernia pyxidaria and Monochoria vaginalis)
Experiment: as above
Assay type: in vivo
Settings: Lindernia pyxidaria, 120 g/10a active ingredient, 14 days after treatment, dry weight vs untreated area
Description: as §1, §2, §3, §4

| SMILES | Herbicidal rate (%) Lindernia pyxidaria |
| --- | --- |
| Cc1c(Cc2ccccc2N(S(=O)(=O)C(F)(F)F)S(=O)(=O)C(F)(F)F)c(=O)on1CCOc1ccccc1 [Compound 1-1058] | 80% |

Same assay, conditions: Lindernia pyxidaria, 120 g/10a active ingredient, dry weight vs untreated area, 14 days after treatment

| SMILES | Herbicidal rate (%) Lindernia pyxidaria |
| --- | --- |
| Cc1c(Cc2c(Cl)cccc2N(S(=O)(=O)C(F)(F)F)S(=O)(=O)C(F)(F)F)c(=O)on1C(C)C [Compound 1-47] | 70% |
| CC(C)c1c(Cc2ccccc2NS(=O)(=O)C(F)(F)F)c(=O)on1C(C)C [Compound 1-68] | 90% |
| Cc1c(Cc2ccccc2NS(=O)(=O)C(F)(F)F)c(=O)on1Cc1ccc(C(C)(C)C)cc1 [Compound 1-192] | 100% |

Same assay, conditions: Monochoria vaginalis, 120 g/10a active ingredient, 14 days after treatment, dry weight vs untreated area

| SMILES | Herbicidal rate (%) Monochoria vaginalis |
| --- | --- |
| Cc1c(Cc2ccccc2N(S(=O)(=O)C(F)(F)F)S(=O)(=O)C(F)(F)F)c(=O)on1CCOc1ccccc1 [Compound 1-1058] | 70% |

Same assay, conditions: Monochoria vaginalis, 120 g/10a active ingredient, dry weight vs untreated area, 14 days after treatment

| SMILES | Herbicidal rate (%) Monochoria vaginalis |
| --- | --- |
| Cc1c(Cc2c(Cl)cccc2N(S(=O)(=O)C(F)(F)F)S(=O)(=O)C(F)(F)F)c(=O)on1C(C)C [Compound 1-47] | 70% |
| CC(C)c1c(Cc2ccccc2NS(=O)(=O)C(F)(F)F)c(=O)on1C(C)C [Compound 1-68] | 80% |
| Cc1c(Cc2ccccc2NS(=O)(=O)C(F)(F)F)c(=O)on1Cc1ccc(C(C)(C)C)cc1 [Compound 1-192] | 100% |

Tested on: Scirpus juncoides
Experiment: Test Example 2: herbicidal effect test by treatment during growing period in paddy rice cultivation (seven days after seeding)
Assay type: in vivo
Settings: 120 g/10a active ingredient, assessed 14 days after treatment, dry weight vs untreated area
Description: as §3
(§5) Herbicidal Effect Test by Treatment During Growing Period in Paddy Rice Cultivation
as §2, with “was mixed,” for “was added,”, “greenhouse. Emulsions” for “greenhouse. Immediately after that, emulsions”, “Table 4” for “Table 3”, “with water seven days after seeding,” for “with water,”, “ares. The test was conducted in a double system per one agent solution concentration area, and the herbicidal rates (%) were determined by the equation (Math. 1) on 14 days after the treatment with the agents. […] The compound numbers in Table 4 are the same as those in Table 1 and Table 2 above.” for “ares.”

| SMILES | Herbicidal rate (%) Scirpus juncoides |
| --- | --- |
| Cc1c(Cc2c(Cl)cccc2N(S(=O)(=O)C(F)(F)F)S(=O)(=O)C(F)(F)F)c(=O)on1C(C)C [Compound 1-47] | 70% |
| CC(C)c1c(Cc2ccccc2NS(=O)(=O)C(F)(F)F)c(=O)on1C(C)C [Compound 1-68] | 80% |
| Cc1c(Cc2ccccc2NS(=O)(=O)C(F)(F)F)c(=O)on1Cc1ccc(C(C)(C)C)cc1 [Compound 1-192] | 60% |

Same assay, conditions: 120 g/10a, rated 14 days after treatment, paddy soil pots

| SMILES | herbicidal rate, Scirpus juncoides |
| --- | --- |
| Cc1c(Cc2ccccc2N(S(=O)(=O)C(F)(F)F)S(=O)(=O)C(F)(F)F)c(=O)on1CCOc1ccccc1 [Compound 1-1058] | 80% |

Tested on: Echinochloa crus-galli
Experiment: as above
Assay type: in vivo
Settings: 120 g/10a active ingredient, assessed 14 days after treatment, dry weight vs untreated area
Description: as §3, §5
as §2, with “was mixed,” for “was added,”, “greenhouse. Emulsions” for “greenhouse. Immediately after that, emulsions”, “Table 4” for “Table 3”, “with water seven days after seeding,” for “with water,”, “ares. The test was conducted in a double system per one agent solution concentration area, and the herbicidal rates (%) were determined by the equation (Math. 1) on 14 days after the treatment with the agents. […] The compound numbers in Table 4 are the same as those in Table 1 and Table 2 above.” for “ares.”

| SMILES | Herbicidal rate (%) Echinochloa crus-galli |
| --- | --- |
| Cc1c(Cc2c(Cl)cccc2N(S(=O)(=O)C(F)(F)F)S(=O)(=O)C(F)(F)F)c(=O)on1C(C)C [Compound 1-47] | 40% |
| CC(C)c1c(Cc2ccccc2NS(=O)(=O)C(F)(F)F)c(=O)on1C(C)C [Compound 1-68] | 40% |
| Cc1c(Cc2ccccc2NS(=O)(=O)C(F)(F)F)c(=O)on1Cc1ccc(C(C)(C)C)cc1 [Compound 1-192] | 40% |

Same assay, conditions: 120 g/10a, rated 14 days after treatment, paddy soil pots

| SMILES | herbicidal rate, Echinochloa crus-galli |
| --- | --- |
| Cc1c(Cc2ccccc2N(S(=O)(=O)C(F)(F)F)S(=O)(=O)C(F)(F)F)c(=O)on1CCOc1ccccc1 [Compound 1-1058] | 90% |

Tested on: broad leaf weeds (Lindernia pyxidaria and Monochoria vaginalis)
Experiment: as above
Assay type: in vivo
Settings: Lindernia pyxidaria, 120 g/10a active ingredient, assessed 14 days after treatment, dry weight vs untreated area
Description: as §3, §5
as §2, with “was mixed,” for “was added,”, “greenhouse. Emulsions” for “greenhouse. Immediately after that, emulsions”, “Table 4” for “Table 3”, “with water seven days after seeding,” for “with water,”, “ares. The test was conducted in a double system per one agent solution concentration area, and the herbicidal rates (%) were determined by the equation (Math. 1) on 14 days after the treatment with the agents. […] The compound numbers in Table 4 are the same as those in Table 1 and Table 2 above.” for “ares.”

| SMILES | Herbicidal rate (%) Lindernia pyxidaria |
| --- | --- |
| Cc1c(Cc2c(Cl)cccc2N(S(=O)(=O)C(F)(F)F)S(=O)(=O)C(F)(F)F)c(=O)on1C(C)C [Compound 1-47] | 40% |
| CC(C)c1c(Cc2ccccc2NS(=O)(=O)C(F)(F)F)c(=O)on1C(C)C [Compound 1-68] | 70% |
| Cc1c(Cc2ccccc2NS(=O)(=O)C(F)(F)F)c(=O)on1Cc1ccc(C(C)(C)C)cc1 [Compound 1-192] | 80% |

Same assay, conditions: Lindernia pyxidaria, 120 g/10a, rated 14 days after treatment, paddy soil pots

| SMILES | herbicidal rate, Lindernia pyxidaria |
| --- | --- |
| Cc1c(Cc2ccccc2N(S(=O)(=O)C(F)(F)F)S(=O)(=O)C(F)(F)F)c(=O)on1CCOc1ccccc1 [Compound 1-1058] | 80% |

Same assay, conditions: Monochoria vaginalis, 120 g/10a active ingredient, assessed 14 days after treatment, dry weight vs untreated area

| SMILES | Herbicidal rate (%) Monochoria vaginalis |
| --- | --- |
| Cc1c(Cc2c(Cl)cccc2N(S(=O)(=O)C(F)(F)F)S(=O)(=O)C(F)(F)F)c(=O)on1C(C)C [Compound 1-47] | 40% |
| CC(C)c1c(Cc2ccccc2NS(=O)(=O)C(F)(F)F)c(=O)on1C(C)C [Compound 1-68] | 80% |
| Cc1c(Cc2ccccc2NS(=O)(=O)C(F)(F)F)c(=O)on1Cc1ccc(C(C)(C)C)cc1 [Compound 1-192] | 80% |

Same assay, conditions: Monochoria vaginalis, 120 g/10a, rated 14 days after treatment, paddy soil pots

| SMILES | herbicidal rate, Monochoria vaginalis |
| --- | --- |
| Cc1c(Cc2ccccc2N(S(=O)(=O)C(F)(F)F)S(=O)(=O)C(F)(F)F)c(=O)on1CCOc1ccccc1 [Compound 1-1058] | 90% |
